Assay results taken from PMC3992131 (Nature chemical biology, 2014).
Like-named read-outs stand apart in the source and are kept apart here. Where a SMILES comes first, the peptide text is derived from it. Bridges are numbered along the chain shown (N, C = ends). Where no end group is shown, it is not given here.

Experiments:
E. coli FhuA = molecular target: T1, E. coli FhuA (Escherichia coli, UniProt P06971); test: biochemical; format: binding, Escherichia coli MG1655
T1 sequence (P06971 34-747): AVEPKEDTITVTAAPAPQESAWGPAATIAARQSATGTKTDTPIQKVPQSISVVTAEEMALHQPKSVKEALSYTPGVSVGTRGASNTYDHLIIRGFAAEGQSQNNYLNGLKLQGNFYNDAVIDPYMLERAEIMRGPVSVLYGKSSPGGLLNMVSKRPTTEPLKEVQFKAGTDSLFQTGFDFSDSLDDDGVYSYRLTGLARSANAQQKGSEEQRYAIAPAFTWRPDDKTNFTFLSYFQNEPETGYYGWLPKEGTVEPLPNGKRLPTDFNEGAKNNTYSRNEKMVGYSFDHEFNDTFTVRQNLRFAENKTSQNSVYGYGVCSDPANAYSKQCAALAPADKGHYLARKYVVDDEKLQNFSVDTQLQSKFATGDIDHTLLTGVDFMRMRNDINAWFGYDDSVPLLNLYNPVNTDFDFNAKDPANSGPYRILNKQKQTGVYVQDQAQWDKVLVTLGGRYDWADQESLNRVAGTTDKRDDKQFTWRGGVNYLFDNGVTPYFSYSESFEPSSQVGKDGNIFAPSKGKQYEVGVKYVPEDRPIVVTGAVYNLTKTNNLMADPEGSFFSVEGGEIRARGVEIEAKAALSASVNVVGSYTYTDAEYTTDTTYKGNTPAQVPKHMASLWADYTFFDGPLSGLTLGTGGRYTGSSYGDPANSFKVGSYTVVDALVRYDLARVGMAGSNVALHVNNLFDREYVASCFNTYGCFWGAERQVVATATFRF

[1] = molecular target: FhuA from E. coli MG1655 with an internal His-tag (E. coli) (UniProt P06971); test: native MS
FhuA (Escherichia coli) = FhuA (Escherichia coli) (UniProt P06971); test: ITC; details: cited from earlier work
[2] = system: Escherichia and Salmonella species; details: cited from earlier work
[3] = system: E. coli W3110 wildtype and tonB− strains; test: tonB antibacterial assay; format: cell-based; details: spot-on-lawn, 10 μL MccJ25 in MeOH (1-100 μg/mL), LB agar, 37°C overnight
[4] = complex fluid matrices; cited from earlier work
E. coli RNA polymerase = details: in vitro; cited from earlier work
Salmonella = details: mouse model of infection by Salmonella; cited from earlier work
FhuA = details: cited from earlier work
human erythrocytes = details: cited from earlier work

## t-MccJ25: MccJ25 hydrolyzed between Phe10 and Val11, obtained by incubation of MccJ25 in the presence of thermolysin (chain 1 GGAGHVPEYF; chain 2 VGIGTPISFYG; also: lactam at chain A 8 to a chain's N-terminus)
E. coli FhuA
  binding to FhuA (result in words): absence of binding to FhuA

## MccJ25[His5Lys] (peptide)
[1]
  Kd: 16900 nM

## MccJ25 (from UniProt Q9X2V7)
FhuA (Escherichia coli)
  Kd: 1200 nM

## CC[C@H](C)[C@H](NC(=O)CNC(=O)[C@@H](NC(=O)[C@H](Cc1ccccc1)NC(=O)[C@H](Cc1ccc(O)cc1)NC(=O)[C@@H]1CCC(=O)NCC(=O)NCC(=O)N[C@@H](C)C(=O)NCC(=O)N[C@@H](Cc2c[nH]cn2)C(=O)N[C@@H](C(C)C)C(=O)N2CCC[C@H]2C(=O)N1)C(C)C)C(=O)NCC(=O)N[C@H](C(=O)N1CCC[C@H]1C(=O)N[C@H](C(=O)N[C@@H](CO)C(=O)N[C@@H](Cc1ccccc1)C(=O)N[C@@H](Cc1ccc(O)cc1)C(=O)NCC(=O)O)[C@@H](C)CC)[C@@H](C)O [MccJ25, microcin J25] (GGAGHVPEYFVGIGTPISFYG-OH; lactam N-8; C-terminus assumed)
[2]
  antibacterial activity/spectrum: potent antibacterial activity exclusively against Escherichia and some Salmonella species
[2]; through inhibition of RNA polymerase
  antibacterial activity/spectrum: potent, narrow spectrum antibacterial activity against Escherichia and Salmonella species
[3]
  internalization dependence on TonB: dependent on the FhuA-TonB system
[4]
  antibacterial activity ex vivo: has been demonstrated both ex vivo, in complex fluid matrices
E. coli RNA polymerase
  inhibition of E. coli RNA polymerase: inhibit E. coli RNA polymerase with equal efficiency in vitro
Salmonella
  antibacterial activity in vivo: in vivo in a mouse model of infection by Salmonella

## CO[C@H]1/C=C/O[C@@]2(C)Oc3c(C)c(O)c4c(O)c(cc(O)c4c3C2=O)NC(=O)/C(C)=C\C=C\[C@H](C)[C@H](O)[C@@H](C)[C@@H](O)[C@@H](C)[C@H](OC(C)=O)[C@@H]1C [rifamycin]
FhuA
  transport by FhuA: cannot efficiently transport

## CC[C@H](C)[C@H](NC(=O)CNC(=O)[C@@H](NC(=O)[C@H](Cc1ccccc1)NC(=O)[C@H](Cc1ccc(O)cc1)NC(=O)[C@@H]1CCC(=O)NCC(=O)NCC(=O)N[C@@H](C)C(=O)NCC(=O)N[C@@H](Cc2cnc[nH]2)C(=O)N[C@@H](C(C)C)C(=O)N2CCC[C@H]2C(=O)N1)C(C)C)C(=O)NCC(=O)N[C@H](C(=O)N1CCC[C@H]1C(=O)N[C@H](C(=O)N[C@@H](CO)C(=O)N[C@@H](Cc1ccccc1)C(=O)N[C@@H](Cc1ccc(O)cc1)C(=O)NCC(=O)O)[C@@H](C)CC)[C@@H](C)O [MccJ25, microcin J25] (GGAGHVPEYFVGIGTPISFYG-OH; lactam N-8)
E. coli FhuA
  Kd: 980 ± 20 nM
Human erythrocytes
  haemolytic activity: without haemolytic activity on human erythrocytes

## CO[C@H]1/C=C/O[C@@]2(C)Oc3c(C)c(O)c4c(c3C2=O)C(=O)C(N2CCOCC2)=C(NC(=O)/C(C)=C\C=C\[C@H](C)[C@H](O)[C@@H](C)[C@@H](O)[C@@H](C)[C@H](OC(=O)CC(=O)OCC2CCCN(C)C2)[C@@H]1C)C4=O (stereo partly shown) [CGP 4832]
FhuA
  transport by FhuA: can transport
